Laboratory results as given in patent publication US4146501A, “Process for isolating and purifying taste bud receptors for screening and evaluating tastants” (priority 1976, dated 1979).
Where two headings read alike, the source gives them in different places.

Legend:
[1] = system: taste bud subfraction P4(B); assay: Binding inhibition of 14C sucrose by various substances; parameters: species or system bovine
[2] = system: non-taste bud bearing epithelial tissue filtrates and B subfractions [P2,4(B)]; assay: Binding of 14C sugars to non-taste bud bearing epithelial tissue filtrates and B subfractions (control); parameters: species or system bovine; details: Epi; for 14C sugar binding: 30 min at 30° C
Method: (§1) The following procedure was utilized in tastant evaluation according to the process of this invention: Protein concentrations were determined by the methods of Lowry et al., (1951) J. Biol. […] According to density, physical appearance as determined by using electron microscopic morphology enzymatic activity and chemical analysis, B subfractions from taste buds and epithelial tissues achieved the greatest membrane purification compared with other subfractions. Among the taste bud B subfractions, P4(B) was morphologically more homogeneous with respect to membranes than P3(B) whereas P2(B) was the least homogeneous of all. Epithelial tissue B subfractions contained mainly fibrous tissue and few differences were found in morphology, density, enzymatic activity or chemical analysis between P2(B) or P4(B) subfractions. Taste bud and epithelial tissue D subfractions contained relatively few membrane fragments compared to the large amount of other cellular organelles present and therefore were not included in these studies. […] Each filtrate and subfraction was washed three times with calcium free, 0.2 M Krebs-Ringer bicarbonate (KRB) pH 7.4, suspended in the same buffer in a final volume of 2 ml and frozen in liquid nitrogen. No detectable change in binding characteristics from suspensions of taste bud or epithelial tissue fractions was observed after storage at -80° for as long as two months. All binding studies were carried out in plastic micro test tubes in a constant temperature shaking bath. For these studies KRB, suspensions of the initial filtrates, subfractions and ^14 C labeled and/or unlabeled sugars were incubated in a final volume of 100 μl. After incubation the tubes were placed in an ice bath, centrifuged, the supernatant aspirated and 10 μl KRB layered on top of the pellet. The KRB was then aspirated, the top of the test tube cut off with a razor blade just above the bellet, placed into 10 ml Aquasol (New England Nuclear Corp., Boston, Mass.) and the radioactivity determined in a liquid scintillation spectrophotometer. Controls, without filtrates or subfractions, were also included. […] The tubes were then placed in an ice bath for 3 minutes, and then centrifuged at 15,000 rpm for 6 min.

[3] = system: epithelial P4(B) subfractions; assay: Displacement of bound 14C sucrose by unlabeled sucrose (epithelial control); format: binding, bovine
Method: (§2) All binding studies were carried out in plastic micro test tubes in a constant temperature shaking bath. For these studies KRB, suspensions of the initial filtrates, subfractions and ^14 C labeled and/or unlabeled sugars were incubated in a final volume of 100 μl. After incubation the tubes were placed in an ice bath, centrifuged, the supernatant aspirated and 10 μl KRB layered on top of the pellet.
(§3) The KRB was then aspirated, the top of the test tube cut off with a razor blade just above the bellet, placed into 10 ml Aquasol (New England Nuclear Corp., Boston, Mass.) and the radioactivity determined in a liquid scintillation spectrophotometer. Controls, without filtrates or subfractions, were also included. These controls represent background radioactivity composed mainly of ^14 C sugars bound to the walls of the plastic test tubes. This background radioactivity was always found to be less than 1% of the lowest level obtained in any study with added tissue fractions. Calculations of ^14 C sugar binding also included a correction for non-specific binding (i.e., ^14 C sugar binding not inhibited by an excess of the unlabeled homologous sugar, which occurred when tissue suspensions were used. This value (40%) was the mean calculated from the results of 56 duplicate experiments. […]

[4] = system: taste bud subfraction P4(B); assay: Time and temperature effects on 14C sucrose binding; parameters: species or system bovine; details: 26 μM 14C sucrose
Method: as §2, §3

[5] = system: taste bud P4(B) subfractions; assay: Specific binding: competition of 14C sugars or SSS with unlabeled homologous and heterologous sugars, Scatchard analysis; parameters: species or system bovine; details: for Kd: mean ± 1 SEM; for specific binding (competition of 14C sugar or SSS with homologous unlabeled sugar or SSS): taste bud P4(B), FIG. 7
[6] = behavioral basis, cow; cited from earlier work
[7] = system: taste bud filtrates and B subfractions [P2,3,4(B)]; assay: Binding of 14C sugars to taste bud filtrates and B subfractions; parameters: species or system bovine; details: for 14C sugar binding / Relative enrichment of sugar binding compared to the initial filtrate: Bud; for 14C sugar binding: 30 min at 30° C
Method: as §1

[8] = system: taste bud P4(B) subfractions; assay: Displacement of bound 14C sucrose by unlabeled sucrose; format: binding, bovine; details: after addition of unlabeled sucrose (0.01-1 mM), FIG. 5; 20 min
Method: as §2, §3

[9] = cited from earlier work
[10] = Filtrate, 14C glucose 200 μM, fructose 400 μM, sucrose 26 μM
[11] = maximal concentration of unlabelled sugar, range of values
[12] = non-linear Scatchard plot, primary class of binding sites, read-out: Kd (dissociation constant), K1
[13] = non-linear Scatchard plot, secondary class of binding sites, read-out: Kd (dissociation constant), K2
[14] = secondary class of binding sites

In the case of `NC(N)=O` [urea], the “inhibition of 14C sucrose binding” value ([1]; urea 5M, 26 μM 14C sucrose) is reported as about 30%.
With `OC[C@H]1O[C@@](CO)(O[C@H]2O[C@H](CO)[C@@H](O)[C@H](O)[C@H]2O)[C@@H](O)[C@@H]1O` [Sucrose, sucrose] the 14C sugar binding [2, 10] was 33000 cpm/mg protein, the “Relative enrichment of sugar binding compared to the initial filtrate” value (“Relative enrichment of sugar binding” for short) ([2]; P2(B)) was 1.1 and the 14C sugar binding ([2]; P2(B)) was 37000 cpm/mg protein. For the same molecule, the “Relative enrichment of sugar binding” value ([2]; P4(B)) was 0.5, the 14C sugar binding ([2]; P4(B)) was 18000 cpm/mg protein and the “reversal of 14C sucrose binding by excess unlabeled sucrose” value [3] was “could not be reversed”. For the same molecule, the “increase of sucrose binding activity following increase in incubation temperature from 0° C. to 30° C.” value ([4]; FIG. 3) was “four”, the “time to plateau of 14C sucrose binding” value ([4]; at 30° C.) was “about 25 min” and the “competition of unlabeled sugar with fructose binding” value ([5]; FIG. 8, in words) was “competed with both glucose and fructose”. For the same molecule, the “competition of unlabeled sugar with glucose binding” value ([5]; FIG. 8, in words) was “competed with both glucose and fructose”, the Kd ([5]; Scatchard plot, single class of sites, read-out: Kd (dissociation constant)) was 1.1 ± 0.4 mM and the “Inhibition (%) of 14C Fructose binding by unlabelled sugar” value [5, 11] was 50-60%. For the same molecule, the “Inhibition (%) of 14C Glucose binding by unlabelled sugar” value [5, 11] was 60-65%, the “Inhibition (%) of 14C Sucrose binding by unlabelled sugar” value [5, 11] was 70-80% and the “Inhibition (%) of 14C Sucrose binding by unlabelled sugar” value ([5]; maximal concentration of unlabelled sugar, range of values, listed as sucrose) was “about 80%”. For the same molecule, the “Relative Binding Inhibition” value ([5]; section SUCROSE (as the 14C sugar per footnote) with each unlabelled sugar, homologous set at 100) was 100%, the “q (concentration of sugar or SSS bound per mg subfraction protein)” value ([5]; single class of sites) was 51 ± 8 mM/mg protein and the “specific binding (competition of 14C sugar or SSS with homologous unlabeled sugar or SSS)” value [5] was “occurred”. The bovine discrimination thresholds [6] was 0.03 M, the 14C sugar binding [7, 10] was 36000 cpm/mg protein and the “Relative enrichment of sugar binding” value ([7]; P2(B)) was 3.1. The 14C sugar binding ([7]; P2(B)) was 113000 cpm/mg protein, the “Relative enrichment of sugar binding” value ([7]; P3(B)) was 7.0 and the 14C sugar binding ([7]; P3(B)) was 255000 cpm/mg protein. The “Relative enrichment of sugar binding” value ([7]; P4(B)) was 23.8, the 14C sugar binding ([7]; P4(B)) was 868000 cpm/mg protein and the “increase in sugar binding compared to the initial filtrate” value ([7]; taste bud subfraction P3(B)) was 7 fold. For the same molecule, the “increase in sugar binding compared to the initial filtrate” value ([7]; taste bud subfraction P4(B)) was 24 fold, the “maximum displacement of the 14C sucrose initially bound” value [8] was “about 80%” and the “Recognition thresholds in man” value ([9]; man) was 0.01 to 0.03 M. For the same molecule, the “detection thresholds in normal man” value ([9]; reported as low as) was at least 5 mM.
For `O=C(O)CN(CCN(CC(=O)O)CC(=O)O)CC(=O)O` [EDTA, ethylenediaminetetraacetic acid], the “inhibition of 14C sucrose binding” value [1] was “approximately 40%”.
For `O=S(=O)(O)NC1CCCCC1` [CYCLAMATE, cyclamate], the Kd [5, 12] was 11.7 ± 2.4 mM, the Kd [5, 13] was 32.6 ± 3.9 mM and the “q (concentration of sugar or SSS bound per mg subfraction protein), K1” value ([5]; primary class of binding sites) was 4.0 ± 0.9 mM/mg protein. For the same molecule, the “q (concentration of sugar or SSS bound per mg subfraction protein), K2” value [5, 14] was 6.6 ± 1.4 mM/mg protein and the “specific binding (competition of 14C sugar or SSS with homologous unlabeled sugar or SSS)” value [5] was “occurred”.
For `O=C1NS(=O)(=O)c2ccccc21` [SACCHARINE, saccharine], the Kd [5, 12] was 18.3 ± 3.9 mM, the Kd [5, 13] was 66.2 ± 6.8 mM and the “q (concentration of sugar or SSS bound per mg subfraction protein), K1” value ([5]; primary class of binding sites) was 2.7 ± 1.0 mM/mg protein. The “q (concentration of sugar or SSS bound per mg subfraction protein), K2” value [5, 14] was 6.4 ± 0.4 mM/mg protein and the “specific binding (competition of 14C sugar or SSS with homologous unlabeled sugar or SSS)” value [5] was “occurred”.
